This assay addresses T1, recombinant c-Myc/Max (Homo sapiens, UniProt P01106+P61244).
T1 construct: made in house
As to the kind of experiment: Electrophoretic mobility shift assay (EMSA): inhibitory activity on DNA binding of recombinant c-Myc/Max. The following applies: read-out: protein assay IC50. The method, then:
1) Preparation of Recombinant c-Myc and Max Proteins
Recombinant proteins were prepared as described in the following references: K. C. Jung et al., Fatty Acids, Inhibitors for the DNA Binding of c-Myc/Max Dimer, Suppress Proliferation and Induce Apoptosis of Differentiated HL-60 Human Leukemia Cell, Leukemia, 2006, 20(1), 122-7 or Kyung-Chae Jeong et al., Small-Molecule Inhibitors of c-Myc Transcriptional Factor Suppress Proliferation and Induce Apoptosis of Promyelocytic Leukemia Cell via Cell Cycle Arrest, Mol. BioSyst., 2010, 6, 1503-1509.
2) Electrophoretic Mobility Shift Assay (EMSA)
The inhibitory activity of each candidate compound on DNA binding of recombinant c-Myc/Max was measured using an electrophoretic mobility shift assay (EMSA). The ratio of protein-DNA complexes in each sample was evaluated by measuring band intensity. The oligonucleotides (E-box) corresponding to the consensus binding site of Myc/Max were dimerized through an annealing process. The protein mixture was incubated at room temperature for 5 minutes, and a DMSO solution containing each candidate compound was added thereto. The mixture was further incubated for 5 minutes, and the biotinylated DNA was added. To achieve a state of equilibrium, the final mixture was incubated at room temperature for 10 minutes. The protein-DNA complexes were separated from unbound free DNA by pre-electrophoresis using 8% polyacrylamide gel and 1×TBE buffer. After pre-electrophoresis, electrophoresis was performed at 120 V for 1 hour in 1×TBE buffer. Each band was visualized using HRP-conjugated streptavidin and an ECL solution, and band intensity was measured using image analysis software.
On the technique in general: Mobility shift assays separate free from complexed probe on a gel.

SMILES strings stand for the structures.

The term IC50 denotes the point on the concentration scale where inhibition reaches its midpoint.

T1 sequence (P01106 whole entry): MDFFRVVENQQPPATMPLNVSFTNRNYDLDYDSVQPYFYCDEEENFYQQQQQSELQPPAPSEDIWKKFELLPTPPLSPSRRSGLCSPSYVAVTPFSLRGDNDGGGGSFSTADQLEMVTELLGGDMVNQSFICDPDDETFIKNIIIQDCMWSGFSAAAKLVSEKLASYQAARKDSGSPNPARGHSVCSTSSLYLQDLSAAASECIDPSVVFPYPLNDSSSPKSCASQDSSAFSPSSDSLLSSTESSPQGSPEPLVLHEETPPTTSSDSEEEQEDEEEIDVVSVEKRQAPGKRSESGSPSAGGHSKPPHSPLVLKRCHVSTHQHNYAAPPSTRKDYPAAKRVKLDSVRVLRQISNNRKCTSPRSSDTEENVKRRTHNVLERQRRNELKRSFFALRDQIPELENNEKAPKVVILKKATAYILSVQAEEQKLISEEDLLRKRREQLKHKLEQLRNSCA
T1 sequence (P61244 whole entry): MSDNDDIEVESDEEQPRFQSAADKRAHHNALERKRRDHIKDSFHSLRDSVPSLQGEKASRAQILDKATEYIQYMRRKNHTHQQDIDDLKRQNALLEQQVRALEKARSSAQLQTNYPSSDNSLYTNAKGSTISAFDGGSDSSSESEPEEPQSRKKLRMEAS

Turning to `CSc1c(C(C)=O)c(=O)c2c(Cl)ccc(Br)c2n1S(=O)(=O)c1ccc(C(C)(C)C)cc1` [Compound 40, 3-acetyl-8-bromo-1-((4-(tert-butyl)phenyl)sulfonyl)-5-chloro-2-(methylthio)quinolin-4(1H)-one], the IC50 was less than 1000 nM.

For `CC(=O)c1c(S(C)(=O)=O)n(S(=O)(=O)c2ccc(C(C)(C)C)cc2)c2c(Br)ccc(Cl)c2c1=O` [Compound 41, 3-acetyl-8-bromo-1-((4-(tert-butyl)phenyl)sulfonyl)-5-chloro-2-(methylsulfonyl)quinolin-4(1H)-one], the IC50 is less than 1000 nM.

On to `CC(=O)c1c([S+](C)[O-])n(S(=O)(=O)c2ccc(C(C)(C)C)cc2)c2c(Br)ccc(Cl)c2c1=O` (stereo not shown) [Compound 42, 3-acetyl-8-bromo-1-((4-(tert-butyl)phenyl)sulfonyl)-5-chloro-2-(methylsulfinyl)quinolin-4(1H)-one], for which the concentration for half-maximal inhibition (IC50) was less than 1000 nM.

For the molecule `CC(=O)c1c(SCc2cc(Cl)ccc2Cl)[nH]c2c(Br)ccc(Cl)c2c1=O` [Compound 43, 3-acetyl-8-bromo-5-chloro-2-((2,5-dichlorobenzyl)thio)quinolin-4(1H)-one], the IC50 was less than 1000 nM.

Regarding `CC(=O)c1c([S+]([O-])Cc2cc(Cl)ccc2Cl)[nH]c2c(Br)ccc(Cl)c2c1=O` (stereo not shown) [Compound 44, 3-acetyl-8-bromo-5-chloro-2-((2,5-dichlorobenzyl)sulfinyl)quinolin-4(1H)-one], the IC50 is less than 1000 nM.

Turning to `CC(=O)c1c(SCc2cc(F)cc(F)c2)[nH]c2c(Br)ccc(Cl)c2c1=O` [Compound 45, 3-acetyl-8-bromo-5-chloro-2-((3,5-difluorobenzyl)thio)quinolin-4(1H)-one], the half-maximal inhibitory concentration (IC50) was less than 1000 nM.

For `CC(=O)c1c([S+]([O-])Cc2cc(F)cc(F)c2)[nH]c2c(Br)ccc(Cl)c2c1=O` (stereo not shown) [Compound 46, 3-acetyl-8-bromo-5-chloro-2-((3,5-difluorobenzyl)sulfinyl)quinolin-4(1H)-one], the IC50 was less than 1000 nM.

On to `CC(=O)c1c(SCc2cccc(I)c2)[nH]c2c(Br)ccc(Cl)c2c1=O` [Compound 47, 3-acetyl-8-bromo-5-chloro-2-((3-iodobenzyl)thio)quinolin-4(1H)-one], for which the IC50 is less than 1000 nM.

In the case of `CC(=O)c1c([S+]([O-])Cc2cccc(I)c2)[nH]c2c(Br)ccc(Cl)c2c1=O` (stereo not shown) [Compound 48, 3-acetyl-8-bromo-5-chloro-2-((3-iodobenzyl)sulfinyl)quinolin-4(1H)-one], the half-inhibitory concentration (IC50) is less than 1000 nM.

On to `CC(=O)c1c(SCc2cccc(F)c2)[nH]c2c(Br)ccc(Cl)c2c1=O` [Compound 49, 3-acetyl-8-bromo-5-chloro-2-((3-fluorobenzyl)thio)quinolin-4(1H)-one], for which the IC50 is less than 1000 nM.

Consider `CC(=O)c1c([S+]([O-])Cc2cccc(F)c2)[nH]c2c(Br)ccc(Cl)c2c1=O` (stereo not shown) [Compound 50, 3-acetyl-8-bromo-5-chloro-2-((3-fluorobenzyl)sulfinyl)quinolin-4(1H)-one], for which the IC50 is less than 1000 nM.

`CC(=O)c1c([S+]([O-])Cc2cc(C)on2)[nH]c2c(Br)ccc(Cl)c2c1=O` (stereo not shown) [Compound 51, 3-acetyl-8-bromo-5-chloro-2-(((5-methylisoxazol-3-yl)methyl)sulfinyl)quinolin-4(1H)-one]: the IC50 is less than 1000 nM.

For `CC(=O)c1c(SCc2ccccc2)nc2c(Br)ccc(Cl)c2c1O` [Compound 52, 1-(2-(benzylthio)-8-bromo-5-chloro-4-hydroxyquinolin-3-yl)ethan-1-one], the IC50 was less than 1000 nM.

For `CC(=O)c1c([S+]([O-])Cc2ccccc2)nc2c(Br)ccc(Cl)c2c1O` (stereo not shown) [Compound 53, 1-(2-(benzylsulfinyl)-8-bromo-5-chloro-4-hydroxyquinolin-3-yl)ethan-1-one], the 50% inhibitory concentration (IC50) was less than 1000 nM.

As for `COc1cccc(C[S+]([O-])c2[nH]c3c(Br)ccc(Cl)c3c(=O)c2C(C)=O)c1` (stereo not shown) [Compound 55, 3-acetyl-8-bromo-5-chloro-2-((3-methoxybenzyl)sulfinyl)quinolin-4(1H)-one], the IC50 was less than 1000 nM.

As to `CC(=O)c1c([S+]([O-])Cc2ccc(SC(F)(F)F)cc2)[nH]c2c(Br)ccc(Cl)c2c1=O` (stereo not shown) [Compound 56, 3-acetyl-8-bromo-5-chloro-2-((4-((trifluoromethyl)thio)benzyl)sulfinyl)quinolin-4(1H)-one], the 50% inhibitory concentration (IC50) is less than 1000 nM.

Regarding `CC(=O)c1c([S+]([O-])Cc2ccc([N+](=O)[O-])cc2)[nH]c2c(Cl)ccc(Cl)c2c1=O` (stereo not shown) [Compound 57, 3-acetyl-5,8-dichloro-2-((4-nitrobenzyl)sulfinyl)quinolin-4(1H)-one], the IC50 is less than 1000 nM.

`CC(=O)c1c([S+]([O-])Cc2ccccc2C#N)[nH]c2c(Br)ccc(Cl)c2c1=O` (stereo not shown) [Compound 58, 2-(((3-acetyl-8-bromo-5-chloro-4-oxo-1,4-dihydroquinolin-2-yl)sulfinyl)methyl)benzonitrile]: the IC50 was less than 1000 nM.

`COc1cc(C[S+]([O-])c2[nH]c3c(Br)ccc(Cl)c3c(=O)c2C(C)=O)cc(OC)c1` (stereo not shown) [Compound 59, 3-acetyl-8-bromo-5-chloro-2-((3,5-dimethoxybenzyl)sulfinyl)quinolin-4(1H)-one]: the IC50 was less than 1000 nM.

`CC(=O)c1c([S+]([O-])Cc2ccc(C(C)(C)C)cc2)[nH]c2c(Br)ccc(Cl)c2c1=O` (stereo not shown) [Compound 60, 3-acetyl-8-bromo-2-((4-(tert-butyl)benzyl)sulfinyl)-5-chloroquinolin-4(1H)-one]: the IC50 is less than 1000 nM.

Regarding `COCSc1[nH]c2c(Br)ccc(Cl)c2c(=O)c1C(C)=O` [Compound 61, 3-acetyl-8-bromo-5-chloro-2-((methoxymethyl)thio)quinolin-4(1H)-one], the IC50 is less than 1000 nM.

Take `CC(=O)c1c(S)[nH]c2c(Br)ccc(Cl)c2c1=O` [Compound 62, 3-acetyl-8-bromo-5-chloro-2-mercaptoquinolin-4(1H)-one]: the half-maximal inhibitory concentration (IC50) is less than 1000 nM.

For `CC(=O)c1c([S+]([O-])Cc2ccc(C(=O)c3ccccc3)cc2)[nH]c2c(Br)ccc(Cl)c2c1=O` (stereo not shown) [Compound 63, 3-acetyl-2-((4-benzoylbenzyl)sulfinyl)-8-bromo-5-chloroquinolin-4(1H)-one], the IC50 is less than 1000 nM.

For the molecule `CC(=O)c1c([S+]([O-])Cc2ccc([S+]([O-])C(F)(F)F)cc2)[nH]c2c(Br)ccc(Cl)c2c1=O` (stereo not shown) [Compound 64, 3-acetyl-8-bromo-5-chloro-2-((4-((trifluoromethyl)sulfinyl)benzyl)sulfinyl)quinolin-4(1H)-one], the concentration for half-maximal inhibition (IC50) is less than 1000 nM.

Consider `CC(=O)c1c([S+]([O-])CC#N)[nH]c2c(Br)ccc(Cl)c2c1=O` (stereo not shown) [Compound 65, 2-((3-acetyl-8-bromo-5-chloro-4-oxo-1,4-dihydroquinolin-2-yl)sulfinyl)acetonitrile], for which the half-maximal inhibitory concentration (IC50) is less than 1000 nM.

As to `CC(=O)c1c(SCC#N)[nH]c2c(Br)ccc(Cl)c2c1=O` [Compound 66, 2-((3-acetyl-8-bromo-5-chloro-4-oxo-1,4-dihydroquinolin-2-yl)thio)acetonitrile], the half-maximal inhibitory concentration (IC50) was less than 1000 nM.

Consider `CC(=O)c1c(S/C=C\C(=O)O)[nH]c2c(Br)ccc(Cl)c2c1=O` [Compound 67, (Z)-3-((3-acetyl-8-bromo-5-chloro-4-oxo-1,4-dihydroquinolin-2-yl)thio)acrylic acid], for which the half-inhibitory concentration (IC50) was less than 1000 nM.

In the case of `CC(=O)c1c([S+]([O-])Cc2ccc(S(F)(F)(F)(F)F)cc2)[nH]c2c(Br)ccc(Cl)c2c1=O` (stereo not shown) [Compound 68, 3-acetyl-8-bromo-5-chloro-2-((4-(pentafluoro-16-sulfanyl)benzyl)sulfinyl)quinolin-4(1H)-one], the IC50 was less than 1000 nM.

`CC(=O)c1c([S+]([O-])Cc2ccc(S(F)(F)(F)(F)F)cc2F)[nH]c2c(Br)ccc(Cl)c2c1=O` (stereo not shown) [Compound 69, 3-acetyl-8-bromo-5-chloro-2-((2-fluoro-4-(pentafluoro-16-sulfanyl)benzyl)sulfinyl)quinolin-4(1H)-one]: the IC50 was less than 1000 nM.

On to `CC(=O)c1c([S+]([O-])Cc2ccc(C(F)(F)F)cc2)[nH]c2c(Br)ccc(Cl)c2c1=O` (stereo not shown) [Compound 70, 3-acetyl-8-bromo-5-chloro-2-((4-(trifluoromethyl)benzyl)sulfinyl)quinolin-4(1H)-one], for which the IC50 was less than 1000 nM.

`CC(=O)c1c([S+]([O-])Cc2ccc(OC(F)(F)F)cc2)[nH]c2c(Br)ccc(Cl)c2c1=O` (stereo not shown) [Compound 71, 3-acetyl-8-bromo-5-chloro-2-((4-(trifluoromethoxy)benzyl)sulfinyl)quinolin-4(1H)-one]: the IC50 was less than 1000 nM.

For `CC(=O)c1c([S+]([O-])Cc2ccc(C(F)(F)F)o2)[nH]c2c(Br)ccc(Cl)c2c1=O` (stereo not shown) [Compound 72, 3-acetyl-8-bromo-5-chloro-2-(((5-(trifluoromethyl)furan-2-yl)methyl)sulfinyl)quinolin-4(1H)-one], the IC50 was less than 1000 nM.

In the case of `CC(=O)c1c([S+]([O-])Cc2ccc(C#N)cc2)[nH]c2c(Br)ccc(Cl)c2c1=O` (stereo not shown) [Compound 73, 4-(((3-acetyl-8-bromo-5-chloro-4-oxo-1,4-dihydroquinolin-2-yl)sulfinyl)methyl)benzonitrile], the 50% inhibitory concentration (IC50) is less than 1000 nM.

For `CC(=O)c1c([S+]([O-])Cc2c(F)cccc2Cl)[nH]c2c(Br)ccc(Cl)c2c1=O` (stereo not shown) [Compound 74, 3-acetyl-8-bromo-5-chloro-2-((2-chloro-6-fluorobenzyl)sulfinyl)quinolin-4(1H)-one], the half-maximal inhibitory concentration (IC50) was less than 1000 nM.

The values above are taken from patent publication US9951021B2, “Compounds for inhibiting c-Myc/Max/DNA complex formation” (NATIONAL CANCER CENTER, priority 2016, dated 2018).
